In publication PMC2193707 (The Journal of Experimental Medicine, 2002):

Columns and labels:
[1] = target: T1, mCD22 (cellular CD22 on mouse B cells) (Mus musculus, UniProt P35329); assay: flow cytometry, inhibition of NeuGc2,6-PAA-bio probe staining; assay type: cell-based; conditions: sialidase-treated mouse B cells (B220+); preincubation on ice 10 min
T1 sequence (P35329 22-868): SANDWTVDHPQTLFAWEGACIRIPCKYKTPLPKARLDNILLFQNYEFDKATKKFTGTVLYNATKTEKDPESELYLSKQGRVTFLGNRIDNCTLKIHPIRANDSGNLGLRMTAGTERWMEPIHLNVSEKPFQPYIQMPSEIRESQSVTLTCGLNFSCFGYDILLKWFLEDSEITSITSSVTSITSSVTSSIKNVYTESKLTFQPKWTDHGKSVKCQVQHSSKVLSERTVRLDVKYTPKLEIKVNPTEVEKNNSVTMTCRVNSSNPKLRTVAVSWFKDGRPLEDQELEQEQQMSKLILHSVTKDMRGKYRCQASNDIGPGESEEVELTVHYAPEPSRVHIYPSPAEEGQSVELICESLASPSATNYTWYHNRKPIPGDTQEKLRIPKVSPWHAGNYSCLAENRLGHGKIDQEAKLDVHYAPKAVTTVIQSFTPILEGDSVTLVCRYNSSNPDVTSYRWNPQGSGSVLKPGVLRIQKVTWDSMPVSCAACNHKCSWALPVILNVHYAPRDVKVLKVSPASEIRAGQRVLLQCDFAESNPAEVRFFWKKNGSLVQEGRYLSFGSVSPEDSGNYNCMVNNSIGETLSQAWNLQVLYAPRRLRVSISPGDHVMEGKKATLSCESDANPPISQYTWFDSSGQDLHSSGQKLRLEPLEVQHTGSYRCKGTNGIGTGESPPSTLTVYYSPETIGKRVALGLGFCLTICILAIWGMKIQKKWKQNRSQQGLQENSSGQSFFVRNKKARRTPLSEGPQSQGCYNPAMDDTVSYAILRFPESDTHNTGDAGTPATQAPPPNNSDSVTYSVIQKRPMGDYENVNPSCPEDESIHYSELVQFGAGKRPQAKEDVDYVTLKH

[2] = target: T2, hCD22 (cellular CD22 on Daudi cells) (Homo sapiens, UniProt P20273); assay: as above; assay type: cell-based; conditions: sialidase-treated Daudi cells; preincubation on ice 10 min
T2 sequence (P20273 20-847): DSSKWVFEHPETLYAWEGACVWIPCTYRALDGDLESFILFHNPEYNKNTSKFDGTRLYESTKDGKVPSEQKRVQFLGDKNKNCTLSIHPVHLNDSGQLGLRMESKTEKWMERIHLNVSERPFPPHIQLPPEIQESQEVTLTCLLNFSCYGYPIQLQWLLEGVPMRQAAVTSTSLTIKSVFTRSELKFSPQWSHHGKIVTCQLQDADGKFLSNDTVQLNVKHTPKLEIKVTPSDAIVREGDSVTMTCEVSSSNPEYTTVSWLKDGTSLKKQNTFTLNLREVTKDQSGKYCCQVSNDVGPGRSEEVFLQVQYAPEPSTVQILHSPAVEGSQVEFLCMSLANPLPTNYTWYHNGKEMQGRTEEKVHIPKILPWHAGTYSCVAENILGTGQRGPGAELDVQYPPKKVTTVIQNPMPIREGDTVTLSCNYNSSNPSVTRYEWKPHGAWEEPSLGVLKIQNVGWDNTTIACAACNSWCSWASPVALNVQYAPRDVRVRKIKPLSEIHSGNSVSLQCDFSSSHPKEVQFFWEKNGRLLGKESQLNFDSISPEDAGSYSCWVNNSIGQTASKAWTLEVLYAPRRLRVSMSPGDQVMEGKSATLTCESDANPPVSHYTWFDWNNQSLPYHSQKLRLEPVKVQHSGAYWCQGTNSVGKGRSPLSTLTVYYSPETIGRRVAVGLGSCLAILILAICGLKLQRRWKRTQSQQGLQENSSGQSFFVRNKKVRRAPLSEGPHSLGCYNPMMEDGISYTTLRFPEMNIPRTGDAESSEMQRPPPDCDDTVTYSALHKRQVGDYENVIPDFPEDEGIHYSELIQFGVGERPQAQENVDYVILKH

[3] = target: T3, hCD22d1–3-Fc (Homo sapiens, UniProt P20273); assay: hapten inhibition of […]-Fc-chimera binding to fixed target cells
T3 sequence (P20273 20-330 limits assumed): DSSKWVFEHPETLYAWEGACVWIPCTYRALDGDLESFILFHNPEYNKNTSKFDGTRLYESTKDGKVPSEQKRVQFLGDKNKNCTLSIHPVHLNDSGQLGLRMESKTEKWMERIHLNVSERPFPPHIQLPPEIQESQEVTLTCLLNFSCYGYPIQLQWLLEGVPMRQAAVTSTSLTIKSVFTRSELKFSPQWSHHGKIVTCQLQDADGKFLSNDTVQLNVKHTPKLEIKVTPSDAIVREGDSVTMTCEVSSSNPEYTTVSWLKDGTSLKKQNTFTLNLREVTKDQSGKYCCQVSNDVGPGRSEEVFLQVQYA

[4] = target: mSnd1–3-Fc (Mus musculus, UniProt Q62230); assay: as above
[5] = target: T4, mCD22d1–3-Fc (Mus musculus, UniProt P35329); assay: as above
T4 sequence (P35329 22-347 limits assumed): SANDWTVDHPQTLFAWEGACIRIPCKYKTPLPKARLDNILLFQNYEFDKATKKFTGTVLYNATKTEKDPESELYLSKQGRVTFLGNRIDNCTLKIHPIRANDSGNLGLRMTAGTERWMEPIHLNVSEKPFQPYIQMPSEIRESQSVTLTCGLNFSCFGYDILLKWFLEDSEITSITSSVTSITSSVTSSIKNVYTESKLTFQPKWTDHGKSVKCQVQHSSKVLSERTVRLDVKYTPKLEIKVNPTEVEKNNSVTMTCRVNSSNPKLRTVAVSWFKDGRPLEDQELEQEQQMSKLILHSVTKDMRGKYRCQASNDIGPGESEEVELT

mSnd1–3-Fc, sequence (Q62230 20-325 limits assumed): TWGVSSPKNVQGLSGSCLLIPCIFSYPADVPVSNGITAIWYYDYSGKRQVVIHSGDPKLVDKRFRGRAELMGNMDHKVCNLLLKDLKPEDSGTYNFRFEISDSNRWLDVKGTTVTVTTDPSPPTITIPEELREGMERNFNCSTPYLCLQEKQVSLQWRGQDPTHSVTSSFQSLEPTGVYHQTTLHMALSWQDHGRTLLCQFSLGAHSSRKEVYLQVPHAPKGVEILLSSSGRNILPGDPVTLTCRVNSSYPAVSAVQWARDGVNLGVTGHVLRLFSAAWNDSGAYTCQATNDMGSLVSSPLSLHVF

Structure (SMILES) | flow cytometry, inhibition of NeuGc2,6-PAA-bio probe staining [1] | flow cytometry, inhibition of NeuGc2,6-PAA-bio probe staining [2] | IC50 [3] [µM] | IC50 [4] [µM] | IC50 [5] [µM]
CO[C@]1(C(=O)O)C[C@H](O)[C@@H](NC(C)=O)[C@H]([C@H](O)[C@H](O)CNC(=O)Cc2ccc(-c3ccccc3)cc2)O1 [BPAc-Neu5Ac, Methyl-a-9-N-(biphenyl-4-acetyl)-amino-9-deoxy-Neu5Ac] | performed on mouse B cells, BPAc-Neu5Ac was the more potent inhibitor |  |  |  | 
CO[C@]1(C(=O)O)C[C@H](O)[C@@H](NC(C)=O)[C@H]([C@H](O)[C@H](O)CNC(=O)c2ccc(-c3ccccc3)cc2)O1 [BPC-Neu5Ac, Methyl-a-9-N-(biphenyl-4-carbonyl)-amino-9-deoxy-Neu5Ac] |  | Pretreatment with BPC-Neu5Ac was most potent in inhibiting the binding of the synthetic CD22 ligand | 4 | 52 | 1220
